Patent US20210393621A1, “COMBINATION SEROTONIN SPECIFIC REUPTAKE INHIBITOR AND SEROTONIN 1A RECEPTOR PARTIAL AGONIST FOR REDUCING L-DOPA-INDUCED DYSKINESIA” (The Research Foundation for The State University of new York, priority 2018, published 2021)
“Also recorded” adds a separate entry of the source. Like-named read-outs stand apart in the source and are kept apart here.

How the values were obtained:
[1] = tested on: L-DOPA-primed 6-OHDA-lesioned rats; assay: Experiment 3: AIMs with 5-HT1AR or 5-HT1BR antagonist before Vilazodone and L-DOPA; format: in vivo, Sprague-Dawley rats; conditions: then VZD 0 or 10 mg/kg, then L-DOPA 6 mg/kg, s.c.
Method: In each study, the LD-primed rats received (FIG. 4A) the 5-HT1AR antagonist WAY100635 [WAY; 0 or 0.5 mg/kg, s.c.] or (FIG. 4B) the 5-HT1BR antagonist NAS [NAS; 0 or 0.3 mg/kg, s.c.]) 5 min prior to VZD (0 or 10 mg/kg, s.c.) injected 5 min prior to LD (6 mg/kg, s.c.) in a within-subjects counterbalanced design. ALO AIMs were evaluated and are shown for every 10 min for 3 h after LD administration.
All 6-OHDA-lesioned rats (n=17) were tested on the FAS prior to treatment regimens to establish baseline motor performance. Three-weeks post-surgery, all rats were primed with L-DOPA (6 mg/kg, s.c.) for 14 days.
Beginning 10 min post-treatment, a trained and blinded observer assigned a severity score (0-4) to each of the ALO AIMs based on 1 min ratings every 10 min for 3 h: 0, not present; 1, present from 1-29 s; 2, present 30-59 s; 3, present all 60 s, but interruptible by a cylinder tap; 4, present 60 s and not interruptible by a cylinder tap.

[2] = tested on: extracellular 5-HT, dopamine and norepinephrine; conditions: cited from earlier work; for maximal increase of extracellular 5-HT: rats, acute systemic injection, measured 3 h after injection; for extracellular dopamine and norepinephrine: rat brain, vilazodone 1 and 10 mg/kg
[3] = tested on: 6-OHDA-lesioned hemi-parkinsonian rats; assay: Experiment 1: forepaw adjusting steps (FAS); format: in vivo, Sprague-Dawley rats; conditions: L-DOPA-primed rats; VZD 0, 10 or 20 mg/kg + L-DOPA 6 mg/kg; 60 min post-L-DOPA
Source text: (§1) Conti et al., 2014). […] Forepaw adjusting steps (FAS): The FAS test is a measure of forelimb akinesia performed according to previous protocols (Bishop et al., 2012; Chang et al., 1999). Data are presented as mean percent intact stepping where the sum of the total steps with the lesioned forepaw was divided by the total steps with the unlesioned forepaw multiplied by 100. Lower percent intact scores indicate greater forelimb akinesia. Prior to baseline, rats received 2 acclimation periods. On-treatment FAS was performed 60 min post-L-DOPA.

[4] = tested on: 6-OHDA-lesioned hemi-parkinsonian rats; assay: Experiment 2: forepaw adjusting steps (FAS); format: in vivo, Sprague-Dawley rats; conditions: L-DOPA-naive rats; VZD 0, 10 or 20 mg/kg + L-DOPA 6 mg/kg; Days 1, 8, 15, 22
Method: as §1, with “[…].). All VZD injections were administered 5 min prior to LD. […] AIMs values expressed are the median sum of axial, limb, and orolingual (ALO) behaviors. […] Values are expressed as medians [±median absolute difference (M.A.D.)].” for “Conti et al., 2014).”

[5] = in vivo; cited from earlier work
[6] = dry and wet AMD; patients taking versus not taking L-DOPA; cited from earlier work
[7] = tested on: striatal c-Fos, PPD, PPE, PPT and 5-HT1AR mRNA; assay: Experiment 2: real-time RT-PCR of striatal gene expression
[8] = tested on: striatal and raphe tissue monoamines; assay: Experiment 1: HPLC of tissue monoamines and metabolites in striatum and dorsal raphe nucleus; conditions: for 5-HIAA / 5-HT / 5-HT Turnover / DA / DA Turnover / DOPAC: Striatum, VZD(0) + LD(6) mg/kg, 60 min post-LD
Method: Three-weeks post-lesion, animals were divided into 2 equally disabled groups, measured by forepaw adjusting steps (FAS, see below). One group (n=8) began receiving 14 days of daily vehicle (0.9% NaCl+0.1% ascorbic acid) and the other (n=22) received L-DOPA methyl ester (6 mg/kg, s.c.; Sigma)+DL-serine 2-(2,3,4-trihydroxybenzyl) hydrazine hydrochloride (benserazide; 15 mg/kg, s.c.; Sigma), hereafter L-DOPA, dissolved in vehicle at a volume of 1 mg/kg. Treatment persisted for 14 days to produce stable AIMs expression (Putterman et al., 2007; Conti et al., 2014). Thereafter, L-DOPA-treated animals with Axial, Limb, and Orolingual (ALO) AIMs (see description below, FIG. 1A)<30 were excluded from the study and the remaining L-DOPA-treated animals were divided into 3 equally dyskinetic groups. […] Daily injections continued over 23 days, with behavior assayed on Days 15, 22, 29, and 36. On Day 37, animals were killed 60 min post-treatment Left and right dorsal striata and DRN were dissected and flash frozen for HPLC analyses.
High-performance liquid chromatography (HPLC): HPLC, a method for semi-automated catecholamine analysis with coulometric detection, was performed according to prior protocols (Bishop et al., 2009) to determine the tissue levels of monoamines, their metabolites, and monoamine turnover in the striatum and DRN. The limit of detection for DOPAC, DA, 5-hydroxyindoleacetic acid (5-HIAA) and 5-HT was 10^−10 M. Final oxidation current values were plotted on a standard curve from 10^−6 M to 10^−9 M and expressed as pg of monoamine or metabolite per mg of tissue unless otherwise specified.
On the final treatment day, animals were sacrificed 60 min post-LD treatment and left and right striata and dorsal raphe nucleus (DRN) were collected for high performance liquid chromatography (HPLC) analysis. Values (means±standard mean error) are expressed as picograms of monoamine or metabolite per milligram wet tissue weight. Turnover estimates were determined by dividing a subjects metabolite value by its corresponding monoamine. Differences were assessed by a 2×4 (lesion×treatment) ANOVA, followed by Fisher's LSD post-hocs when appropriate. *p<0.01 vs lesion vs intact; +p<0.05 vs all; ^p<0.05 vs VZD (0)+LD (0); #p<0.05 vs VZD (0)+LD (6)

DRN 5-HT neurons = assay: Example 3: in vivo single-unit recordings of DRN 5-HT neurons; set-up: species or system rats
5-HT1A receptor = target: T1, 5-HT1A receptor (Homo sapiens, UniProt P08908); set-up: expressed in transfected cells; host or cells: SF9 cells; conditions: 5-HT1A receptor expressed in SF9 cells; cited from earlier work
T1 sequence (P08908 1-422): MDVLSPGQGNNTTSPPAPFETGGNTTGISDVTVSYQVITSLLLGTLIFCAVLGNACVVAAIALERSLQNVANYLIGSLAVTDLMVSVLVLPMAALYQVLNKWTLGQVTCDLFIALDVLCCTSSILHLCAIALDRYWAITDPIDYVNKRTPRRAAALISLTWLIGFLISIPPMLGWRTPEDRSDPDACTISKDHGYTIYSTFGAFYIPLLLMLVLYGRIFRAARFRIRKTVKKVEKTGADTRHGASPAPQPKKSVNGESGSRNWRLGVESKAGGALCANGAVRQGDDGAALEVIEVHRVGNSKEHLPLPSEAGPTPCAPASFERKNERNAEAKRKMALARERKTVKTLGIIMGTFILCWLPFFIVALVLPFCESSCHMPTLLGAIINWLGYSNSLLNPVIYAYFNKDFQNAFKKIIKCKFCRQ

[9] = tested on: unilateral 6-OHDA-lesioned rats; assay: Example 2: L-DOPA-induced dyskinesias (LIDs) scoring; format: in vivo, Sprague-Dawley rats
Method: 6-OHDA-induced dopaminergic lesions: Adult male Sprague-Dawley rats were randomly assigned to groups receiving either a 6-OHDA or sham lesion. […] [[…] 2019]. […] Rats were treated for 5 consecutive days/week (Mon-Fri), for 2 weeks. […] All rats were evaluated three times per week for the presence of L-DOPA-induced dyskinesias (LIDs) (Wed-Fri) and once for the stepping test (Tue). […] Scores were given over 1 min epochs and classified as axial, limb, orolingual and locomotive. […] Arrows=inhibitory input; dashed arrows=compromised function. The severity of each LID was scored using a standard scale. Each dyskinetic behavior was given an intensity and frequency score, which were then multiplied. The average sum of the products of each LID was determined in each animal.

5HT2A = conditions: rat cerebral cortex; read-out: affinity Ki; cited from earlier work
[10] = tested on: unilateral 6-OHDA-lesioned rats; assay: Example 2: stepping test; format: in vivo, Sprague-Dawley rats; conditions: vilazodone 10 mg/kg or escitalopram 12.5 mg/kg + L-DOPA 5 mg/kg; 60 minutes post L-DOPA
Method: 6-OHDA-induced dopaminergic lesions: Adult male Sprague-Dawley rats were randomly assigned to groups receiving either a 6-OHDA or sham lesion. All rats received desipramine (10 mg/kg i.p.) 30 min prior to surgery to prevent the lesioning of norepinephrine neurons by 6-OHDA. A single injection of 6-OHDA (8 μg of 6-OHDA free base in 4 μl of 0.1% ascorbic acid) was delivered into the right medial forebrain bundle (coordinates taken from bregma: −4.3 mm AP, 1.6 mm ML, −8.3 mm DV). The same experimental treatment was performed for the sham-operated rats using vehicle (4 μl of 0.1% ascorbic acid). A standard stepping test was used to evaluate the effectiveness of the 6-OHDA lesion.
Rats were treated for 5 consecutive days/week (Mon-Fri), for 2 weeks. On the second day of each week, stepping tests were performed prior to drug administration, and 60 minutes post L-DOPA treatment.

[11] = lesioned striata, VZD 0, 10 or 20 mg/kg + L-DOPA 6 mg/kg daily, day 23, 60 min post-injection

C1=C(CN2CCOCC2)COc2c1cccc2OC[C@H]1CNCCO1.CS(=O)(=O)O [NAS-181, (R)-(+)-2-(3-morpholinomethyl-2H-chromen-8-yl) oxymethyl-morpholine methane-sulfonate]
ALO AIMs, 5-HT1BR study ([1]; NAS-181 0 or 3.0 mg/kg): did not significantly alter AIMs or their reduction by Vilazodone

CNCCC(Oc1ccc(C(F)(F)F)cc1)c1ccccc1 (centres unmarked) [fluoxetine]
maximal increase of extracellular 5-HT ([2]; frontal cortex): 165% | maximal increase of extracellular 5-HT ([2]; ventral hippocampus): 274%

N[C@@H](Cc1ccc(O)c(O)c1)C(=O)O [L-DOPA, L-3,4-dihydroxyphenylalanine]
FAS motor performance versus baseline [3]: significant improvements on motor performance over baseline | FAS stepping relative to baseline [4]: significant increases in motor ability on each test day | fraction that crosses the blood-brain barrier [5]: 5-10% | delay of onset of AMD [6]: around 8 years | striatal PPT mRNA ([7]; FIG. 6B): did not increase striatal PPT | striatal PPE mRNA ([7]; lesioned striata, L-DOPA 6 mg/kg, Vilazodone 20 mg/kg): significantly increased PPE | striatal PPD mRNA [7, 11]: significantly increased PPD | striatal c-Fos mRNA [7, 11]: potentiated c-Fos | DRN levels of DA, DOPAC and DA Turnover ([8]; L-DOPA 6 mg/kg): significantly increased DRN levels of DA, DOPAC and DA Turnover | 5-HIAA ([8]; Intact): 650 ± 68.9 picograms per milligram wet ti | 5-HT ([8]; Intact): 241 ± 29.6^ picograms per milligram wet ti | 5-HT Turnover ([8]; Intact): 2.77 ± 0.15+ | DA ([8]; Intact): 4561 ± 210 picograms per milligram wet ti | DA Turnover ([8]; Intact): 0.89 ± 0.04 | DOPAC ([8]; Intact): 4051 ± 224 picograms per milligram wet ti | 5-HIAA ([8]; Lesion): 907 ± 82.5 picograms per milligram wet ti | 5-HT ([8]; Lesion): 264 ± 39.6 picograms per milligram wet ti | 5-HT Turnover ([8]; Lesion): 3.93 ± 0.63 | DA ([8]; Lesion): 83.3 ± 7.99 picograms per milligram wet ti | DA Turnover ([8]; Lesion): 1.42 ± 0.23 | DOPAC ([8]; Lesion): 127 ± 30.7 picograms per milligram wet ti

Br.CCCN(CCC)C1CCc2cccc(O)c2C1 (centres unmarked) [8-OH-DPAT, 8-hydroxy-2-(dipropylamino) tetralin hydrobromide]
spontaneous firing of DRN 5-HT neurons (DRN 5-HT neurons; rat, in vivo, iv): suppressed the spontaneous firing of a DRN neuron | extracellular dopamine and norepinephrine [2]: caused an increase | increase of [35S]GTPγS binding compared to vehicle (5-HT1A receptor): eightfold

COc1ccccc1N1CCN(CCN(C(=O)C2CCCCC2)c2ccccn2)CC1.O=C(O)/C=C\C(=O)O [WAY100635, N-[2-[4(2-Methoxyphenyl)-1-piperazinyl]ethyl]-N-2-pyridinylcyclohexanecarboxamide maleate salt]
summed ALO AIMs, 5-HT1AR study ([1]; WAY100635 0 or 0.5 mg/kg): partially reversed the anti-dyskinetic efficacy of Vilazodone | effect of 5-HT1A blockade on vilazodone's benefit on LIDs ([9]; WAY100635 with vilazodone + L-DOPA): reverses the beneficial effects of vilazodone on LIDs | spontaneous firing of DRN 5-HT neurons (DRN 5-HT neurons; i.v., 8-OH-DPAT then WAY-100635 100 μg/kg, BFP and D2Rs expressing rats): return to baseline firing was observed

c1ccc2c(c1)OC[C@H](CNCCCOc1ccc3c(c1)OCO3)O2 [MKC-242]
extracellular dopamine and norepinephrine [2]: caused an increase

O=C1CC2(CCCC2)CC(=O)N1CCCCN1CCN(c2ncccn2)CC1 [buspirone]
extracellular dopamine and norepinephrine [2]: caused an increase

O=S1(=O)N(CCN2CC=C(c3c[nH]c4cc(F)ccc34)CC2)c2cccc3c2N1CCC3 [LY367265]
Ki (5HT2A): 490 nM

CN(C)CCC[C@@]1(c2ccc(F)cc2)OCc2cc(C#N)ccc21 [Escitalopram]
LIDs score / severity ([9]; pretreatment with vilazodone 10 mg/kg or escitalopram 12.5 mg/kg before L-DOPA 5 mg/kg, 2 weeks): significantly reduced LIDs severity; also recorded: significant reduction in total LIDs score | forelimb akinesia and L-DOPA prokinetic / therapeutic efficacy (stepping test) [10]: affected L-DOPA therapeutic efficacy; also recorded: interfered with the therapeutic efficacy of L-DOPA
